The values that follow come from patent US11229618B2 (Amarin Pharmaceuticals Ireland Limited, priority 2012, dated 2022).

Test [1] can be described thus: MARINE: RBC fatty acid concentrations, ratios and class proportions (GC/FID). It is filed as in vivo, human. The procedure: A multi-center, placebo-controlled randomized, double-blind, 12-week study with an open-label extension is performed to evaluate the efficacy and safety of AMR101 in patients with fasting triglyceride levels≥500 mg/dL. The primary objective of the study is to determine the efficacy of AMR101 2 g daily and 4 g daily, compared to placebo, in lowering fasting TG levels in patients with fasting TG levels≥500 mg/dL and ≤1500 mg/dL (≥5.65 mmol/L and ≤16.94 mmol/L).
Eligible patients will be randomly assigned at Visit 4 (Week 0) to receive orally AMR101 2 g daily, AMR101 4 g daily, or placebo for the 12-week double-blind treatment period. AMR101 is provided in 1 g liquid-filled, oblong, gelatin capsules. The matching placebo capsule is filled with light liquid paraffin and contains 0 g of AMR101. During the double-blind treatment period, patients will take 2 capsules (AMR101 or matching placebo) in the morning and 2 in the evening for a total of 4 capsules per day. Patients in the AMR101 2 g/day treatment group will receive 1 AMR101 1 g capsule and 1 matching placebo capsule in the morning and in the evening. Patients in the AMR101 4 g/day treatment group will receive 2 AMR101 1 g capsules in the morning and evening.
Lipids were extracted from plasma and RBC suspensions and converted into fatty acid methyl esters for analysis using a standard validated gas chromatography/flame ionization detection method. Fatty acid parameters were compared between EPA treatment groups and placebo using an ANCOVA model with treatment, gender, type of statin therapy, and presence of diabetes as factors, and the baseline parameter value as a covariate. LSMs, SEs, and 2-tailed 95% confidence intervals for each treatment group and for each comparison were determined.
The monounsaturated fatty acid group included myristoleic, palmitoleic, cis-vaccenic, oleic, gondoic/gadoleic, erucic and nervonic acids. The saturated fatty acid group included myristic, palmitic, stearic, arachidic, behenic and lignoceric acids. The “total omega-3” group included α-linolenic, stearidonic, eicosatrienoic, ω-3 arachidonic, eicosapentaenoic, ω-3 docosapentaenoic and docosahecaenoic acids. The “total omega-6” group included linoleic, γ-linolenic, eicosadienoic, dihomo-γ-linolenic, ω-6 arachidonic, adrenic, and ω-6 docosapentaenoic acids. The “total fatty acid” group represented the sum of the monounsaturated, saturated, total omega-3 and total omega-6 groups.

The next test concerns fasting TG levels. Put plainly: ANCHOR: fasting TG lowering and LDL-C. It is filed as in vivo, human. Particulars: for median percent reductions in TG from baseline, 4 g/day compared with 2 g/day: 12 weeks. The procedure:
A multi-center, placebo-controlled, randomized, double-blind, 12-week study was performed to evaluate the efficacy and safety of >96% E-EPA in patients with fasting triglyceride levels≥200 mg/dl and <500 mg/dl despite statin therapy (the mean of two qualifying entry values needed to be ≥185 mg/dl and at least one of the values needed to be ≥200 mg/dl). The primary objective of the study was to determine the efficacy of >96% E-EPA 2 g daily and 4 g daily, compared to placebo, in lowering fasting TG levels in patients with high risk for cardiovascular disease and with fasting TG levels≥200 mg/dL and <500 mg/dL, despite treatment to LDL-C goal on statin therapy.
The primary efficacy variable for the double-blind treatment period was percent change in TG from baseline to Week 12 endpoint. The secondary efficacy variables for the double-blind treatment period included the following: • Percent changes in total cholesterol (TC), high-density lipoprotein cholesterol (HDL-C), LDL-C, calculated non-HDL-C, and very low-density lipoprotein cholesterol (VLDL-C) from baseline to Week 12 endpoint; • Percent change in very low-density lipoprotein TG from baseline to Week 12; • Percent changes in apolipoprotein A-I (apo A-I), apolipoprotein B (apo B), and apo A-I/apo B ratio from baseline to Week 12; • Percent changes in lipoprotein(a) from baseline to Week 12; • Percent changes in LDL particle number and size, measured by nuclear magnetic resonance, from baseline to Week 12; • Percent change in remnant-like particle cholesterol from baseline to Week 12; • Percent change in oxidized LDL from baseline to Week 12; • Changes in FPG and HbA1c from baseline to Week 12; • Change in insulin resistance, as assessed by the homeostasis model index insulin resistance, from baseline to Week 12; • Percent change in lipoprotein associated phospholipase A2 (Lp-PLA2) from baseline to Week 12; • Change in intracellular adhesion molecule-1 from baseline to Week 12; • Change in interleukin-2 from baseline to Week 12; • Change in plasminogen activator inhibitor-1 from baseline to Week 12. Note: this parameter will only be collected at sites with proper storage conditions; • Change in hsCRP from baseline to Week 12; and • Change in plasma concentration and red blood cell membrane content of fatty acid from baseline to Week 12 including EPA, docosapentaenoic acid (DPA), docosahexaenoic acid (DHA), arachidonic acid (AA), dihomo-γ-linolenic acid (DGLA), the ratio of EPA/AA, ratio of oleic acid/stearic acid (OA/SA), and the ratio of total omega-3 acids over total omega-6 acids.
The primary efficacy analysis was performed using a 2-way analysis of covariance (ANCOVA) model with treatment as a factor and baseline TG value as a covariate. […]

Where [2] appears, read: red blood cell, IPE 4 g/day vs placebo, week 12, P <0.0001.

Molecules are shown by their SMILES.

Turning to `CC/C=C\C/C=C\C/C=C\C/C=C\C/C=C\CCCC(=O)OCC` [IPE, all-cis eicosa-5,8,11,14,17-pentaenoic acid ethyl ester], the “Mono-unsaturated, proportion to total fatty acids, Mean placebo-adjusted percent change from baseline” value in test [1] (RBCs, IPE 2 g/day vs placebo, P 0.0435) is −3.1%; in test [1] (RBCs, IPE 4 g/day vs placebo, P 0.0154) it was −3.9%. In addition, the “Saturated, proportion to total fatty acids, Mean placebo-adjusted percent change from baseline” value is recorded as 1.1% in test [1] (RBCs, IPE 2 g/day vs placebo, P 0.3278) and 1.9% in test [1] (RBCs, IPE 4 g/day vs placebo, P 0.1145). Besides, the “Total omega-6, proportion to total fatty acids, Mean placebo-adjusted percent change from baseline” value in test [1] (RBCs, IPE 4 g/day vs placebo, P <0.0001) is recorded as −17.3%. Further, in test [1] (red blood cell, IPE 2 g/day vs placebo, week 12, P 0.0008), the “AA Mean placebo-adjusted percent change from baseline” value was −8.0%. Moreover, the “Linoleic Mean placebo-adjusted percent change from baseline” value in test [1] (red blood cell, IPE 2 g/day vs placebo, week 12, P 0.1278) was −4.7%; in test [1] (setting [2]) it was −13.0%. Further, the “Oleic Mean placebo-adjusted percent change from baseline” value is −2.1% in test [1] (red blood cell, IPE 2 g/day vs placebo, week 12, P 0.3736) and −3.7% in test [1] (red blood cell, IPE 4 g/day vs placebo, week 12, P 0.1325). For the same compound, the “DHA Mean placebo-adjusted percent change from baseline” value in test [1] (red blood cell, IPE 2 g/day vs placebo, week 12, P 0.5859) is −1.8%; in test [1] (red blood cell, IPE 4 g/day vs placebo, week 12, P 0.1216), −5.2%. Besides, the “Stearic Mean placebo-adjusted percent change from baseline” value in test [1] (red blood cell, IPE 2 g/day vs placebo, week 12, P 0.5886) is listed as 1.1%; in test [1] (red blood cell, IPE 4 g/day vs placebo, week 12, P 0.7565), −0.7%. The “Palmitic Mean placebo-adjusted percent change from baseline” value is given as −0.1% in test [1] (red blood cell, IPE 2 g/day vs placebo, week 12, P 0.9465) and −0.7% in test [1] (red blood cell, IPE 4 g/day vs placebo, week 12, P 0.7427). The “DPAn-3 Mean placebo-adjusted percent change from baseline” value in test [1] (red blood cell, IPE 2 g/day vs placebo, week 12, P <0.0001) came to 86.4%; in test [1] (setting [2]) it was 105.6%. The “effect on LDL-C” value with fasting TG levels is recorded as “without raising LDL-C”. The “median percent reductions in TG from baseline, 4 g/day compared with 2 g/day” value is “higher with IPE 4 g/day than with 2 g/day” in the test on fasting TG levels and “higher for subjects administered about 4 grams of EPA per day” with fasting TG levels (listed as EPA). In the test with fasting TG levels (patients with high TG levels on statin therapy), the “effect on TG levels” value is reported as “significantly reduced TG levels”.
